Measurements as given in patent US20130344026A1, “Dimeric Smac Mimetics” (priority 2009, published 2013).
Like-named read-outs stand apart in the source and are kept apart here.

Tested on: HCC461
Experiment: cell viability assay in HCC461, compound alone
Assay type: cell-based
[1] = HCC461, HCC461 cells, compound alone, read-out: IC50 (uM) in cell viability assay in HCC461
[2] = HCC461, HCC461, Tables 15-18, read-out: IC50 (uM) in cell viability assay in HCC461
[3] = HCC461, HCC461, Tables 6-9, read-out: IC50 (μM) in cell viability assay in HCC461

Row | IC50 [1] [µM] | IC50 [2] [µM] | Compound | other results
1 |  |  | CN[C@@H](C)C(=O)N[C@@H](CCC(=O)N[C@H]1CC(C(=O)N[C@@H]2CCc3ccccc3C2)N(C(=O)[C@@H](NC(=O)[C@H](C)NC)C(C)(C)C)C1)C(=O)N[C@H](C(=O)N[C@@H](C)C(C)C)C(C)(C)C (stereo partly shown) [Compound 163] | IC50 (HCC461, Tables 6-9, read-out: IC50 (μM) in cell viability assay in HCC461): > 30 µM
2 | 0.016 |  | CN[C@@H](C)C(=O)N[C@H](C(=O)N1C[C@@H](NC(=O)c2cc(C(=O)N[C@H]3C[C@@H](C(=O)NC4c5ccccc5-c5ccccc54)N(C(=O)[C@@H](NC(=O)[C@H](C)NC)C(C)(C)C)C3)[nH]n2)C[C@H]1C(=O)NC1c2ccccc2-c2ccccc21)C(C)(C)C [Compound P3-63] | 
3 | 0.044 |  | CN[C@@H](C)C(=O)N[C@H](C(=O)N1C[C@@H](NC(=O)c2cc(N)cc(C(=O)N[C@H]3C[C@@H](C(=O)N[C@H](C)c4ccccc4)N(C(=O)[C@@H](NC(=O)[C@H](C)NC)C(C)(C)C)C3)c2)C[C@H]1C(=O)N[C@H](C)c1ccccc1)C(C)(C)C [Compound P3-52] | 
4 |  |  | CN[C@@H](C)C(=O)N[C@@H](CCCCNC(=O)c1cccc(C(=O)NCCCC[C@H](NC(=O)[C@H](C)NC)C(=O)N2CCCC[C@H]2C(=O)N[C@@H]2CCCc3ccccc32)c1)C(=O)N1CCCC[C@H]1C(=O)N[C@@H]1CCCc2ccccc21 [Compound 142] | IC50 [3]: > 30 µM
5 |  | 0.043 | CN[C@@H](C)C(=O)N[C@@H](COCCCCCCOC[C@H](NC(=O)[C@H](C)NC)C(=O)N1CCCC1C(=O)N[C@@H]1CCCc2ccccc21)C(=O)N1CCCC1C(=O)N[C@@H]1CCCc2ccccc21 (stereo partly shown) [Compound P2-20] | 
6 | 0.024 |  | CN[C@@H](C)C(=O)N[C@H](C(=O)N1C[C@@H](NC(=O)C2CCCC(C(=O)N[C@H]3C[C@@H](C(=O)N[C@H](C)C4CCCCC4)N(C(=O)[C@@H](NC(=O)[C@H](C)NC)C(C)(C)C)C3)C2)C[C@H]1C(=O)N[C@H](C)C1CCCCC1)C(C)(C)C (stereo partly shown) [Compound P3-46] | 
7 |  |  | CN[C@@H](C)C(=O)N[C@H](C(=O)N1C[C@@H](NC(=O)CC[C@@H](NC(=O)[C@H](NC(=O)[C@@H](C)NC)C(C)(C)C)C(=O)N[C@H]2CCCc3ccccc32)C[C@H]1C(=O)N[C@@H]1CCCc2ccccc21)C(C)(C)C [Compound 157] | IC50 [3]: 0.03 µM
8 | 0.017 |  | CC[C@H](C)[C@H](NC(=O)[C@H](C)NC)C(=O)N1C[C@@H](NC(=O)c2cc(C(=O)N[C@H]3C[C@@H](C(=O)N[C@H](C)c4ccccc4)N(C(=O)[C@@H](NC(=O)[C@H](C)NC)[C@@H](C)CC)C3)[nH]n2)C[C@H]1C(=O)N[C@H](C)c1ccccc1 [Compound P3-69] | 
9 |  | 0.121 | CN[C@@H](C)C(=O)N[C@@H](CCCCNC(=O)c1cc(N)cc(C(=O)NCCCC[C@H](NC(=O)[C@H](C)NC)C(=O)N2CCC[C@H]2C(=O)N[C@@H]2CCCc3ccccc32)c1)C(=O)N1CCC[C@H]1C(=O)N[C@@H]1CCCc2ccccc21 [Compound P2-24] | 
10 | 0.099 |  | CN[C@@H](C)C(=O)N[C@H](C(=O)N1C[C@@H](NC(=O)CCCCCCC(=O)N[C@H]2C[C@@H](C(=O)N[C@@H]3CCCc4ccccc43)N(C(=O)[C@@H](NC(=O)[C@H](C)NC)C(C)(C)C)C2)C[C@H]1C(=O)N[C@@H]1CCCc2ccccc21)C(C)(C)C [Compound P3-85] | 
11 |  |  | CN[C@@H](C)C(=O)N[C@H](C(=O)N1C[C@@H](NC(=O)c2cccc(C(=O)N[C@H]3C[C@@H](C(=O)NC4CCCC5CCCCC54)N(C(=O)[C@@H](NC(=O)[C@H](C)NC)C(C)(C)C)C3)c2)C[C@H]1C(=O)NC1CCCC2CCCCC21)C(C)(C)C (stereo partly shown) [Compound P3-59] | IC50 (HCC461 cells, compound alone, read-out: IC50 (uM) in cell viability assay in HCC461): 0.45 µM
12 | 0.023 |  | C#CC[C@H](NC(=O)[C@H](C)NC)C(=O)N1C[C@@H](NC(=O)c2cnc(C(=O)N[C@H]3C[C@@H](C(=O)N[C@@H]4CCCc5ccccc54)N(C(=O)[C@H](CC#C)NC(=O)[C@H](C)NC)C3)cn2)C[C@H]1C(=O)N[C@@H]1CCCc2ccccc21 [Compound P3-14] | 
13 |  |  | CN[C@@H](C)C(=O)N[C@@H](C(C)C)C(C)N[C@@H](CNC(=O)c1cccc(C(=O)N[C@H]2C[C@@H](C(=O)N[C@@H]3CCCc4ccccc43)N(C(=O)[C@@H](NC(=O)[C@H](C)NC)C(C)(C)C)C2)c1)C(=O)N[C@H](C)C(C)C (stereo partly shown) [Compound 136] | IC50 [3]: > 30 µM
14 |  | 0.088 | CN[C@@H](C)C(=O)N[C@@H](Cc1ccc(O[C@H]2C[C@@H](C(=O)N[C@@H]3CCCc4ccccc43)N(C(=O)[C@@H](NC(=O)[C@H](C)NC)C(C)(C)C)C2)cc1)C(=O)N1CCCC1 [Compound H-3] | 
15 | 0.01 |  | CN[C@@H](C)C(=O)N[C@H](C(=O)N1C[C@@H](NC(=O)c2cccc(C(=O)N[C@H]3C[C@@H](C(=O)N[C@@H]4CCCc5ccccc54)N(C(=O)[C@@H](NC(=O)[C@H](C)NC)C4CCCCC4)C3)c2)C[C@H]1C(=O)N[C@@H]1CCCc2ccccc21)C1CCCCC1 [Compound P3-53] | 
16 |  | 0.324 | CN[C@@H](C)C(=O)N[C@@H](CCCCNC(=O)c1cccc(C(=O)NCCCC[C@H](NC(=O)[C@H](C)NC)C(=O)N2CCC[C@H]2C(=O)NC(c2ccccc2)c2ccccc2)c1)C(=O)N1CCC[C@H]1C(=O)NC(c1ccccc1)c1ccccc1 [Compound P2-29] | 
17 | 0.086 |  | C#CC[C@H](NC(=O)[C@H](C)NC)C(=O)N1C[C@@H](NC(=O)N[C@H]2C[C@@H](C(=O)N[C@@H]3CCCc4ccccc43)N(C(=O)[C@H](CC#C)NC(=O)[C@H](C)NC)C2)CC1C(=O)N[C@@H]1CCCc2ccccc21 (stereo partly shown) [Compound P3-9] | 
18 |  | 0.091 | CN[C@@H](C)C(=O)N[C@@H](CC#CC#CC[C@H](NC(=O)[C@H](C)NC)C(=O)N1CCC[C@H]1C(=O)NC1c2ccccc2-c2ccccc21)C(=O)N1CCC[C@H]1C(=O)NC1c2ccccc2-c2ccccc21 [Compound P2-5] | 
19 |  |  | CC[C@H](NC)C(=O)N[C@@H](CC#CC#CC[C@H](NC(=O)[C@H](CC)NC)C(=O)N1CCC[C@H]1C(=O)N[C@@H]1CCCc2ccccc21)C(=O)N1CCC[C@H]1C(=O)N[C@@H]1CCCc2ccccc21 [Compound P2-9] | IC50 (HCC461, Tables 15-18, read-out: IC50 (uM) in cell viability assay in HCC461): 0.025 µM
20 | 0.047 |  | C#CC[C@H](NC(=O)[C@H](C)NC)C(=O)N1C[C@@H](NC(=O)c2cccc(C(=O)N[C@H]3C[C@@H](C(=O)N[C@@H]4CCCc5ccccc54)N(C(=O)[C@H](CC#C)NC(=O)[C@H](C)NC)C3)c2)C[C@H]1C(=O)N[C@@H]1CCCc2ccccc21 [Compound P3-12] | 

Row | Compound | IC50 [1] [µM] | IC50 [2] [µM] | other results
21 | CN[C@@H](C)C(=O)N[C@@H](CCCCCC[C@H](NC(=O)[C@H](C)NC)C(=O)N1CCC[C@H]1C(=O)N(C)Cc1ccccc1)C(=O)N1CCC[C@H]1C(=O)N(C)Cc1ccccc1 [Compound P2-4] |  | 0.037 | 
22 | CN[C@@H](C)C(=O)N[C@H](C(=O)N1C[C@@H](NC(=O)c2cc(C(=O)N[C@H]3C[C@@H](C(=O)N[C@@H]4CCCc5ccccc54)N(C(=O)[C@@H](NC(=O)[C@H](C)NC)C(C)(C)C)C3)cc(C(C)(C)C)c2)C[C@H]1C(=O)N[C@@H]1CCCc2ccccc21)C(C)(C)C [Compound P3-23] | 0.007 |  | 
23 | CN[C@@H](C)C(=O)N[C@H](C(=O)N1CCC[C@H]1C(=O)N[C@H](CNC(=O)c1ccc(C(=O)NC[C@@H](NC(=O)[C@@H]2CCCN2C(=O)[C@@H](NC(=O)[C@H](C)NC)C(C)(C)C)C2CCCCC2)cc1)C1CCCCC1)C(C)(C)C [Compound P4-8] |  | 0.2 | 
24 | CN[C@@H](C)C(=O)N[C@@H](CCNC(=O)c1cccc(C(=O)NCC[C@H](NC(=O)[C@H](C)NC)C(=O)N2CCC[C@H]2C(=O)N[C@@H]2CCCc3ccccc32)c1)C(=O)N1CCC[C@H]1C(=O)N[C@@H]1CCCc2ccccc21 [Compound P2-26] |  | 0.08 | 
25 | CN[C@@H](C)C(=O)N[C@H](C(=O)N1CCC[C@H]1C(=O)N[C@H](CNC(=O)c1cccc(C(=O)NC[C@@H](NC(=O)[C@@H]2CCCN2C(=O)[C@@H](NC(=O)[C@H](C)NC)C(C)(C)C)c2ccccc2)c1)c1ccccc1)C(C)(C)C [Compound P4-11] |  | 0.068 | 
